The results in this text go back to US11491128B2, “Reversible nitroxide derivatives of nitroalkenes that mediate nitrosating and alkylating reactions” (University of Pittsburgh—Of the Commonwealth System of …, priority 2016, dated 2022).

A short description of data set [1]: UV-Vis analysis of NO2-CLA generation by decomposition of NO2—NO3—CLA at different pH (312 nm). The format is physicochemical. The following applies: 312 nm (FIG. 1). On the procedure:
Synthetic NO2—NO3—CLA standards were generated by performing independent reactions of 0.5 mg conjugated-9,11-linoleic acid (CLA, cat. no. UC-60A, Nu-Check Prep Inc., Elysian, Minn.) with 2 mM sodium nitrite (NaNO2) in 1 ml artificial gastric fluid for 1 h at 37° C., under continuous agitation. The lipid fraction was extracted by hexane, 50 μl were dried under a stream of nitrogen gas, dissolved in 300 μl methanol and decomposition of the NO2—NO3—CLA with generation of NO2-CLA was measured spectrophotometrically at 312 nm (FIG. 1). The addition of 10 μl acetic acid to the methanolic solution confirmed the stability of NO2—NO3—CLA at acidic pH (FIG. 1, diamond curve).

Data set [2] is described as follows: N-nitrosation of 2,3-diaminonaphtalene (DAN) to 2,3-naphthotriazole (NAT), followed by HPLC-MS/MS. Type of data set: physicochemical. Conditions: for formation of NAT: 20 μM DAN. The procedure:
To investigate if the degradation of NO2—NO3-CLA induced generation of nitrosative species, N-nitrosation of 2,3-diaminonaphtalene (DAN) to yield 2,3-naphthotriazole (NAT) was performed. Briefly, 25 μl synthetic NO2—NO3-CLA standards were dried under a stream of nitrogen gas, and resuspended in 1 ml of solvents at different polarity with 20 μM DAN. Then, formation of NAT was followed over 60 min by HPLC-MS/MS (FIG. 4).
Analysis of NAT was performed by HPLC-MS/MS using an analytical C18 Luna column (2×20 mm, 5 μm, Phenomenex) at a 0.75 ml/min flow rate, with a gradient solvent system consisting of water containing 0.1% acetic acid (solvent A) and acetonitrile containing 0.1% acetic acid (solvent B). Samples were chromatographically resolved using the following gradient program: 10-100% solvent B (0-3.3 min); 100% solvent B (3.3-4.2 min) followed by 0.8 min re-equilibration to initial conditions. An API4000 Q-trap triple quadrupole mass spectrometer (Applied Biosystems, San Jose, Calif.), equipped with an electrospray ionization source (ESI) in positive mode, was used with the following parameters: declustering potential, 70 V; entrance potential 5; collision cell exit potential 10; collision energy 35; and a desolvation temperature of 650° C. NAT was analyzed using the MRM transition 170.1/115.1.

Take `CCCCCCC(/C=C/C(CCCCCCCC(=O)O)[N+](=O)[O-])O[N+](=O)[O-]` (centres unmarked) [NO2—NO3-CLA, (E)-9-nitro-12-(nitrooxy)octadec-10-enoic acid]: the “degradation of NO2—NO3—CLA with generation of NO2-CLA” value in data set [1] (methanolic solution + 10 μl phosphate buffer 50 mM pH 7.4 or 10 μl ammonium hydroxide) was “pH-dependent”. The “rate of NO2-CLA generation on pH increase from pH 7.4 to more basic pH” value in data set [1] (phosphate buffer pH 7.4 versus ammonium hydroxide) was “faster generation of NO2-CLA”. For the same compound, the “formation of NAT” value in data set [2] (dissolved in methanol, over 60 min (FIG. 4, square curve)) is reported as “none formation of NAT was observed”; in data set [2] (phosphate buffer 50 mM, pH 7.4 with 100 μM DTPA, over 60 min (FIG. 4, circle curve)) it was “time dependent generation of NAT”. The “stability of NO2—NO3-CLA in basic pH” value in data set [2] (phosphate buffer 50 mM, pH 7.4 with 100 μM DTPA) is given as “instability”.
